The source of these data is PMC7892475, “C-Terminal Amination of a Cationic Anti-Inflammatory Peptide Improves Bioavailability and Inhibitory Activity Against LPS-Induced Inflammation” (Frontiers in Immunology, 2021).

The nature of data set [1]: Reverse-phase HPLC retention time as measure of peptide hydrophobicity. To be noted: HPLC on reverse-phase matrix, aqueous solution; used by the paper as measure of hydrophobicity. Type of data set: physicochemical. An excerpt:
The retention time of peptides on a reverse-phase matrix has been reported to be related to peptide hydrophobicity ([34]).

Data set [2] relates to RAW264.7 cells. Kind of data set: CCK-8 cell viability assay. Type of data set: cell-based, mouse. The note with it: RAW264.7 macrophages, CCK-8, 0 to 80 μg/ml, 24 h or 72 h, 37°C. How it is done:
The viability of peptide-treated RAW264.7 cells was determined using a Cell Counting Kit-8 (CCK-8) Assay Kit (Dojindo) ([35]). RAW264.7 cells were plated in 96-well plates at a density of 3×10^4 cells/ml in 100 μl DMEM overnight. The cell culture medium was then supplemented with fresh medium containing candidate peptides in a series of concentrations, and the plates were incubated for another 24 h or 72 h. Each well was incubated with 10 μl CCK-8 solution for 4 h in the dark. Afterwards, the absorbance at 450 nm was measured using a microplate reader. Cell viability was determined by:
Cell viability (%)=(OD450sample/OD450(control))×100%
Background: Formazan colour is commonly taken as a measure of viable cells.

In data set [3] the test system is LPS-stimulated RAW264.7 cells. The experiment in a line: Time of addition experiment (peptide pretreatment, LPS neutralization, post-treatment) in RAW264.7 cells. It counts as cell-based, mouse. The note with it: ELISA. On the procedure: To identify the mechanisms underlying the anti-inflammatory effects, three different types of treatments were performed as follow.
Briefly, 10 μg/ml peptide was added to the cell culture medium and incubated with cells for 1 h at 37°C Afterwards, the RAW 264.7 cells were washed with PBS and cultured with fresh medium containing 100 ng/ml LPS for 12 h at 37°C. After treatment, TNF-α, IL-6, and IL-1β secretion in the cell supernatants was assessed.
The peptides (10 μg/ml) were incubated with 100 ng/ml LPS directly for 1 h at 37°C. RAW 264.7 cells were stimulated with these mixtures for 12 h at 37°C. Afterwards, the TNF-α, IL-6 and IL-1β levels in the cell supernatants were assessed.
Briefly, 100 ng/ml LPS was added to the cell culture medium and incubated with cells for 1 h at 37°C. Afterwards, the RAW 264.7 cells were washed with PBS and cultured with fresh medium containing 10 μg/ml peptides for 12 h at 37°C. Afterwards, the TNF-α, IL-6, and IL-1β levels in the cell supernatants were assessed.
(§1) The levels of tumor necrosis factor (TNF)-α, interleukin (IL)-6, and IL-1β in cell culture supernatants and the levels of TNF-α, IL-6, and IL-1β in the serum of mice were detected using commercial ELISA kits (eBioscience, San Diego, USA) according to the manufacturer’s instructions. The levels of serum alanine amino transferase (ALT) and aspartate amino transferase (AST) were detected using commercial reagent kits (Nanjing Jiancheng Bioengineering Institute, Nanjing, China). The activity of myeloperoxidase (MPO) in the liver of mice was detected using an ELISA kit (Boster, Wuhan, China) according to the manufacturer’s instructions.
A general note: An ELISA detects its analyte on a solid surface through an enzyme-linked reagent.

Data set [4] has as its system RAW264.7 cells. Kind of data set: Cellular uptake and localization of FITC-labeled peptides (confocal microscopy, flow cytometry). It counts as cell-based, mouse. To be noted: N-terminus FITC-labeled peptide, 10 μg/ml, 24 h, 37°C, confocal microscopy and flow cytometry (average FITC intensity). On the procedure: RAW264.7 cells were treated with N-terminus FITC-labeled peptides at 10 μg/ml for 24 h at 37°C; in the dark. Then, the RAW264.7 cells were rinsed with PBS three times, fixed with paraformaldehyde and washed with PBS. The cell nuclei were stained with DAPI (diluted 1:500 in PBS) (Sigma, USA) for 5 min, and the cells were washed with PBS. The above cells were spread on a glass slide, fixed and observed with a Leica TCA sp5 confocal microscope (Germany).
RAW264.7 cells were stained with 10 μg/ml N-terminus FITC-labeled peptides at 37°C in the dark for 24 h. Afterwards, the RAW264.7 cells were harvested and rinsed with PBS five times. The average FITC intensity in the cells was measured via flow cytometry.

In data set [5] the test system is LPS-induced sepsis in C57/BL6 mice. The experiment in a line: LPS-induced murine model of sepsis. It counts as in vivo, mouse. How it is done: Male C57/BL6 mice (6–8 weeks of age) were purchased from Charles River (Beijing, China). The mice were maintained in a specific-pathogen-free (SPF) environment at 22 ± 1°C with relative 55 ± 10% humidity during the experiments. The assays were performed in conformity with the laws and regulations for live animal treatments at China Agricultural University.
The mice were randomly distributed into three groups (n = 12 each): control, LPS (E. coli, O111:B4, Sigma-Aldrich, USA) treatment, and CTP-NH2 pretreatment followed by LPS treatment (CTP-NH2 + LPS). For the first 7 days, CTP-NH2 (10 mg/kg mouse weight) was injected intraperitoneally once daily. Meanwhile, an equal volume of sterile saline was injected into mice in the control and LPS-treated groups. On day 7, LPS (10 mg/kg mouse weight) was injected intraperitoneally into mice in the LPS and CTP-NH2 + LPS groups to establish the sepsis animal model. The control group was intraperitoneally injected with an equal volume of saline. Sixteen hours after the LPS injection, the mice were euthanized by cervical dislocation, and samples of the […] were collected for analysis.
The mouse liver tissues were fixed in 4% paraformaldehyde, embedded in paraffin and cut into 5-μm-thick sections using an RM2235 microtome (Leica, Germany). The sections were stained with hematoxylin-eosin (H&E), and a DM3000 microscope was used to acquire images. LPS-induced liver injury was evaluated according to the following four categories: […]. The liver injury score was graded on a 0- to 4-point scale: 0, no injury; 1, up to 25% injury in the field; 2, up to 50% injury in the field; 3, up to 75% injury in the field; 4, diffuse injury ([43]).
For immunohistochemical analysis, the sections were blocked with PBS containing 1% w/v BSA for 1 h at room temperature. Afterwards, the sections were incubated with anti-CD177^+ antibody (1:100; Santa, USA). Samples were washed with PBS followed by incubation with horse-radish peroxidase (HRP)-conjugated rabbit anti-goat IgG (1:100; JIR, USA) at 4°C for 1 h. Subsequently, slides were stained with 3,3’-diaminobenzidine (DAB; DAKO, USA) and then counterstained with Harris hematoxylin. Finally, the samples were dehydrated in an alcohol gradient (70-100%) and cleared in xylene. All slides were mounted in neutral balsam.
as §1

“RWGRFLRKIRRFRRKDVT-NH2 [CTP-NH2, C-terminal amidated derivative peptide of CTP]” returned a Retention time in data set [1] of 11.96 min. Besides, the “cytotoxicity (comparison in words)” value in data set [2] is recorded as “less cytotoxicity than CTP”. Moreover, the “TNF-α and IL-6 level, peptide used to pretreat cells or added after LPS induction” value in data set [3] (10 μg/ml peptide 1 h then wash and 100 ng/ml LPS 12 h, or LPS 1 h, wash, then peptide 12 h) is reported as “reduced the concentration of TNF-α”. In data set [3] (10 μg/ml peptide incubated with 100 ng/ml LPS 1 h at 37°C, mixture on cells 12 h), the “TNF-α and IL-6 release, peptide incubated with LPS” value is on record as “more potency than CTP”. Besides, the “cellular uptake and localization” value in data set [4] was “significant cellular uptake and a dispersed distribution compared with CTP”. In addition, the “liver MPO activity” value in data set [5] (ELISA, 10 mg/kg i.p. pretreatment, LPS 10 mg/kg i.p., vs LPS-treated mice) is listed as “significantly reduced this effect”. Moreover, the “infiltration of CD177+ neutrophils into the liver” value in data set [5] (immunohistochemistry, 10 mg/kg i.p. pretreatment, LPS 10 mg/kg i.p., vs LPS-treated group) is “significantly lower”. Besides, the “serum TNF-α, IL-6 and IL-1β levels” value in data set [5] (male C57/BL6 mice, 10 mg/kg i.p. once daily 7 days (Figure 8 legend: 6 days), then LPS 10 mg/kg i.p., 16 h, ELISA, vs LPS-treated group) is recorded as “significantly decreased levels of TNF-α”. In data set [5] (male C57/BL6 mice, 10 mg/kg i.p. once daily pretreatment, LPS 10 mg/kg i.p., score 0 to 4), the “severity of liver injury (H&E, liver injury score)” value is on record as “attenuated”. Further, in data set [5] (male C57/BL6 mice, 10 mg/kg i.p. once daily pretreatment, LPS 10 mg/kg i.p., vs LPS-treated group), the “serum ALT and AST” value is “significantly attenuated these effects”.
